Measured values as given in ChEMBL document CHEMBL4613284, “A Class of Potent Inhibitors of the HIV-1 Nucleocapsid Protein Based on Aminopyrrolic Scaffolds” (ACS Med Chem Lett, 2020).
Calls of active or inactive are those of the source. The rule behind the calls is not given here.

Columns and labels:
cTAR DNA [1] = test: Binding affinity to HIV1 nucleocapsid protein (11 to 55 residues)-targeted Rh6G-5'-cTAR DNA-3'-Dabcyl assessed as inhibition of NC-induced viral Rh6G-5'-cTAR DNA-3'-Dabcyl destabilization by measuring fluorescence intensity up to 60 mins by fluorescence assay; format: nucleic-acid assay, Human immunodeficiency virus 1
[2] = Solubility of compound in water; format: physicochemical; conditions: buffer
cTAR DNA [3] = test: Binding affinity to HIV1 nucleocapsid protein (11 to 55 residues)-targeted Rh6G-5'-cTAR DNA-3'-Dabcyl/dTAR assessed as inhibition of NC-promoted annealing of Rh6G-5'-cTAR DNA-3'-Dabcyl/unlabeled dTAR at 0.4 uM by spectrofluorimetry analysis; format: nucleic-acid assay; conditions: Human immunodeficiency virus 1
cTAR DNA [4] = test: Binding affinity to HIV1 nucleocapsid protein (11 to 55 residues)-targeted Rh6G-5'-cTAR DNA-3'-Dabcyl/dTAR assessed as inhibition of NC-promoted annealing of Rh6G-5'-cTAR DNA-3'-Dabcyl/unlabeled dTAR at 4 uM after 25 hrs by spectrofluorimetry analysis relative to control; format: nucleic-acid assay; conditions: Human immunodeficiency virus 1
cTAR DNA [5] = test: Inhibition of annealing of HIV1 Rh6G5'-cTAR DNA-3'-Dabcyl/unlabeled dTAR at 4 uM after 25 hrs by spectrofluorimetry analysis; format: nucleic-acid assay; conditions: Human immunodeficiency virus 1
PBS RNA [6] = test: Binding affinity to HIV1 nucleocapsid protein (11 to 55 residues)-targeted Rh6G-5'-(+)-PBS-3'-Dabcyl/(-)-PBS assessed as inhibition of NC-promoted annealing of +/- PBS sequence at 4 uM by spectrofluorimetry analysis relative to control; format: nucleic-acid assay; conditions: Human immunodeficiency virus 1
PBS RNA [7] = test: Inhibition of annealing of HIV1 Rh6G-5'-(+)-PBS-3'-Dabcyl/(-)-PBS at 4 uM by spectrofluorimetry analysis relative to control; format: nucleic-acid assay; conditions: Human immunodeficiency virus 1
cTAR DNA [8] = test: Binding affinity to HIV1 fluorescein-labeled-5'-cTAR DNA at cTAR to compound complex stoichiometry ratio of 1:3 using 30 mM NaCl by fluorescence anisotropy assay; format: nucleic-acid assay, Human immunodeficiency virus 1
cTAR DNA [9] = test: Binding affinity to HIV1 fluorescein-labeled-5'-cTAR DNA at cTAR to compound complex stoichiometry ratio of 1:3 using 80 mM NaCl by fluorescence anisotropy assay; format: nucleic-acid assay, Human immunodeficiency virus 1
ssDNA [10] = test: Binding affinity to HIV1 single stranded fluorescein-labeled-5'-S3G5 oligonucleotide at 5'-S3G5 oligonucleotide to compound stoichiometry ratio of 1:3 by fluorescence anisotropy assay; format: nucleic-acid assay; conditions: Human immunodeficiency virus 1
PBS RNA [11] = test: Binding affinity to HIV1 propidium iodide-labeled double stranded (-)/(+)-PBS sequence by fluorescence anisotropy assay; format: nucleic-acid assay; conditions: Human immunodeficiency virus 1
[12] = tested on: Human immunodeficiency virus 1; test: Binding affinity to HIV1 nucleocapsid protein (11 to 55 residues) assessed as change in fluorescence intensity of Trp37 residue up to 10 uM by fluorescence anisotropy assay
[13] = tested on: Human immunodeficiency virus 1; test: Binding affinity to HIV1 nucleocapsid protein (11 to 55 residues) assessed as increase in fluorescence intensity of Trp37 residue at 100 uM by fluorescence anisotropy assay
ssDNA [14] = test: Competitive binding affinity to HIV1 S3G5 oligonucleotide assessed as apparent equilibrium dissociation constant of NC(11 to 55 residues) to S3G5 oligonucleotide at 5 uM and 20 degreeC by isothermal titration calorimetry (reference value: 0.15 +/ 0.1 microM); format: nucleic-acid assay; conditions: Human immunodeficiency virus 1
ssDNA [15] = test: Competitive binding affinity to HIV1 S3G5 oligonucleotide assessed as apparent equilibrium dissociation constant of NC(11 to 55 residues) to S3G5 oligonucleotide at 20 uM and 20 degreeC by isothermal titration calorimetry (reference value: 0.15 +/- 0.1 microM); format: nucleic-acid assay; conditions: Human immunodeficiency virus 1
ssDNA [16] = test: Competitive binding affinity to HIV1 S3G5 oligonucleotide at 20 degreeC by isothermal titration calorimetry; format: nucleic-acid assay; conditions: Human immunodeficiency virus 1
ssDNA [17] = test: Competitive binding affinity to HIV1 S3G5 oligonucleotide assessed as equilibrium dissociation constant by isothermal titration calorimetry; format: nucleic-acid assay, Human immunodeficiency virus 1
[18] = Cytotoxicity against human MT4 cells assessed as reduction in cell viability incubated for 5 days by MTT assay; format: cell-based
[19] = tested on: Human immunodeficiency virus 1; test: Antiviral activity against HIV1 3B infected in human MT4 cells assessed as protection against virus-induced cytopathic effect incubated for 5 days by MTT assay; format: functional, organism-based; conditions: Human immunodeficiency virus 1, 3B, MT4, 120 h
[20] = tested on: Human immunodeficiency virus 1; test: Antiviral activity against HIV1 pNL4.3deltaenvLuc-ADA 8 pseudotyped virus infected in human U373-CD4-CCR5 cells assessed as reduction in viral infection measured after 48 hrs by luciferase assay; format: functional, organism-based; conditions: Human immunodeficiency virus 1, 48 h
[21] = Cytotoxicity against human U373 cells expressing CD4-CCR5 assessed as reduction in cell viability incubated for 48 hrs by luciferase assay; format: cell-based, U-373MG ATCC; conditions: U373 MG
[22] = Therapeutic index, ratio of CC50 for human U373 cells expressing CD4-CCR5 to IC50 for HIV1 pNL4.3deltaenvLuc-ADA 8 pseudotyped virus infected in human U373-CD4-CCR5 cells; format: toxicity, cell-based; conditions: read-out: Ratio CC50/IC50
cTAR DNA [23] = test: Binding affinity to HIV1 propidium iodide-labeled-5'-cTAR DNA at cTAR to compound complex stoichiometry ratio of 1:3 using 30 mM NaCl by fluorescence anisotropy assay; format: nucleic-acid assay; conditions: Human immunodeficiency virus 1
[24] = tested on: Human immunodeficiency virus 1; test: Binding affinity to HIV1 nucleocapsid protein (11 to 55 residues) assessed as change in fluorescence intensity of Trp37 residue up to 100 uM by fluorescence based analysis
cTAR DNA [25] = test: Binding affinity to HIV1 fluorescein-labeled-5'-cTAR DNA at cTAR to compound complex stoichiometry ratio of 1:3 using 150 mM NaCl by fluorescence anisotropy assay; format: nucleic-acid assay; conditions: Human immunodeficiency virus 1

## CCc1c(CN[C@H]2CCCC[C@@H]2NCc2ccc[nH]2)c(CC)c(CN[C@H]2CCCC[C@@H]2NCc2ccc[nH]2)c(CC)c1CN[C@H]1CCCC[C@@H]1NCc1ccc[nH]1
cTAR DNA [1]
  IC50: 93 µM

## CCc1c(CN)c(CC)c2c(CC)c1CNCc1ccc([nH]1)CNCc1c(CC)c(CN)c(CC)c(c1CC)CNCc1ccc([nH]1)CNC2
cTAR DNA [1]
  IC50: 4.9 µM

## CCc1c(CNCc2ccc[nH]2)c(CC)c(CNCc2ccc[nH]2)c(CC)c1CNCc1ccc[nH]1
cTAR DNA [1]
  IC50: 150 µM

## CCc1c(CNCCNCc2ccc[nH]2)c(CC)c(CNCCNCc2ccc[nH]2)c(CC)c1CNCCNCc1ccc[nH]1
cTAR DNA [1]
  IC50: 58 µM

## c1c[nH]c(CNCc2ccc(CNCc3ccc[nH]3)c3c(CNCc4ccc[nH]4)ccc(CNCc4ccc[nH]4)c23)c1
cTAR DNA [1]
  IC50: 10 µM

## CCc1c(CN[C@@H]2CCCC[C@H]2NCc2ccc[nH]2)c(CC)c(CN[C@@H]2CCCC[C@H]2NCc2ccc[nH]2)c(CC)c1CN[C@@H]1CCCC[C@H]1NCc1ccc[nH]1
cTAR DNA [1]
  IC50: 96 µM

## c1c[nH]c(CNCc2c(CNCc3ccc[nH]3)c(CNCc3ccc[nH]3)c(CNCc3ccc[nH]3)c(CNCc3ccc[nH]3)c2CNCc2ccc[nH]2)c1
cTAR DNA [1]
  IC50: 52 µM

## CCc1c(CN[C@@H]2CCCC[C@H]2N)c(CC)c2c(CC)c1CN[C@@H]1CCCC[C@H]1NCc1ccc([nH]1)CN[C@@H]1CCCC[C@H]1NC2
cTAR DNA [1]
  IC50: 60 µM

## CCc1c2c(CC)c(CN[C@H]3CCCC[C@@H]3N)c(CC)c1CN[C@H]1CCCC[C@@H]1NCc1ccc([nH]1)CN[C@H]1CCCC[C@@H]1NC2
cTAR DNA [1]
  IC50: 63 µM

## c1c[nH]c(CNCc2cc(CNCc3ccc[nH]3)c(CNCc3ccc[nH]3)c(CNCc3ccc[nH]3)c2)c1
cTAR DNA [1]
  IC50: 130 µM

## CCc1c(CN)c(CC)c2c(CC)c1CNCc1ccc([nH]1)CNCc1c(CC)c(CNCc3ccc[nH]3)c(CC)c(c1CC)CNCc1ccc([nH]1)CNC2
[2]
  solubility: Soluble
cTAR DNA [1]
  IC50: 4.4 µM
cTAR DNA [3]
  Activity: Active
cTAR DNA [4]
  inhibition: 100%
cTAR DNA [5]
  inhibition: Active
PBS RNA [6]
  inhibition: 100%
PBS RNA [7]
  inhibition: 100%
cTAR DNA [8]
  Kd: 0.23 µM
cTAR DNA [9]
  Kd: 2 µM
ssDNA [10]
  K: 0.6 µM
PBS RNA [11]
  Activity: inactive
[12]
  Activity: inactive
[13]
  Activity: Active
ssDNA [14]
  Kapp: 1.5 µM
ssDNA [15]
  Kapp: 12 µM
ssDNA [16]
  Activity: Dose-dependent effect
ssDNA [17]
  Kd: 0.26 µM
[18]
  CC50 at 120 h: 24 µM
[19]
  IC50: 13.5 µM
[20]
  IC50: 1.8 µM
[21]
  IC50: 15 µM
[22]
  selectivity ratio: 8
cTAR DNA [23]
  Activity: Active
[24]
  Activity: inactive
cTAR DNA [25]
  Activity: inactive

## CCc1c(CNCc2ccc[nH]2)c(CC)c2c(CC)c1CNCc1ccc([nH]1)CNCc1c(CC)c(CNCc3ccc[nH]3)c(CC)c(c1CC)CNCc1ccc([nH]1)CNC2
cTAR DNA [1]
  IC50: 17 µM
